Experimental data from patent EP0935965A1, “ANTIPYLORI AGENT” (TORAY INDUSTRIES, INC., priority 1996, dated 1997).
Where a SMILES comes first, the peptide text is derived from it.

System: acetic acid ulcer
Assay: Healing accelerating action on acetic acid ulcer of rat
Assay type: in vivo, Sprague Dawle rats
Protocol: 15 Sprague Dawle rats each having a weight of about 220 g were used, and a gastric ulcer was experimentally formed in each of the rats. A gastric ulcer was formed by exposing the gastric anterior wall of each of the rats by ventrotomy under etherization, and injecting 0.03 ml of 20% acetic acid into the submucous layer in the boundary between the fundus glands and the pyloric glands of the gastric anterior wall by a Hamilton microsyringe in accordance with the method of Okabe et al., closing the stomach, and then feeding for 7 days in a normal manner.
On the seventh day, five rats were sacrificially killed, and the stomachs were extracted therefrom. The residual 10 rats were divided into two groups consisting of 5 rats each and used as a control group administered with physiologic saline and an experimental group administered with PR-39.
The rats in the control group and the experimental group were intraperitoneally administered with 1 ml of physiologic saline and 0.8 mg/ml of PR-39, respectively, once a day. After administration of physiologic saline or PR-39 for 7 days, the stomach was extracted from each of the rats on the day after final administration (14 days after acetic acid administration).
In each of the extracted stomachs, the pyloric ring and the esophagogastric junction were clamped, and 10 ml of 70% alcohol was injected into the stomach, followed by fixing. The stomach was cut along the curvatura ventriculi major to expose the gastric mucosal surface, and the gastric ulcer formed was visually observed to measure the surface area thereof.
Successively, a central portion of the gastric ulcer was cut out in parallel to the curvatura ventriculi minor, embedded in paraffin, and then stained with HE to histologically examine the formed gastric ulcer.
The examination terms included the length of each of the gastric ulcer, and the thickness of the granulation of the ulcer bottom thereof.

[1] = 14 days after acetic acid, histological observation, PR-39 0.8 mg/ml intraperitoneally once a day for 7 days

Question: What does the source list for `CC[C@H](C)[C@H](NC(=O)[C@H](CCCNC(=N)N)NC(=O)[C@@H]1CCCN1C(=O)[C@@H]1CCCN1C(=O)[C@H](CC(C)C)NC(=O)[C@H](CCCNC(=N)N)NC(=O)[C@@H]1CCCN1C(=O)[C@@H]1CCCN1C(=O)[C@H](Cc1ccccc1)NC(=O)[C@H](Cc1ccccc1)NC(=O)[C@@H]1CCCN1C(=O)[C@@H]1CCCN1C(=O)[C@@H]1CCCN1C(=O)[C@H](CCCNC(=N)N)NC(=O)[C@@H]1CCCN1C(=O)[C@H](CCCNC(=N)N)NC(=O)[C@@H]1CCCN1C(=O)[C@H](CC(C)C)NC(=O)[C@H](Cc1ccc(O)cc1)NC(=O)[C@@H]1CCCN1C(=O)[C@@H]1CCCN1C(=O)[C@H](CCCNC(=N)N)NC(=O)[C@@H]1CCCN1C(=O)[C@H](CCCNC(=N)N)NC(=O)[C@H](CCCNC(=N)N)NC(=O)[C@@H](N)CCCNC(=N)N)C(=O)N1CCC[C@H]1C(=O)N1CCC[C@H]1C(=O)NCC(=O)N[C@@H](Cc1ccccc1)C(=O)N1CCC[C@H]1C(=O)N1CCC[C@H]1C(=O)N[C@@H](CCCNC(=N)N)C(=O)N[C@@H](Cc1ccccc1)C(=O)N1CCC[C@H]1C(=O)N1CCC[C@H]1C(=O)N[C@@H](CCCNC(=N)N)C(=O)N[C@@H](Cc1ccccc1)C(=O)N1CCC[C@H]1C(N)=O` [PR-39, proline arginine rich peptide-39] (H-RRRPRPPYLPRPRPPPFFPPRLPPRIPPGFPPRFPPRFP-NH2; N-terminus and C-terminus assumed)?
Answer: Ulcer surface area (14 days after acetic acid, PR-39 0.8 mg/ml intraperitoneally once a day for 7 days): 2.82 ± 1.96 mm2; average±SEM; visual observation of gastric mucosa (14 days after acetic acid, compared with the control group (physiologic saline)): ulcer scar accompanied with concentration of the mucosal folds of gallbladder was observed; Diameter of ulcer [1]: 1.58 ± 0.49 mm; Thickness of granulation tissue [1]: 1.39 ± 0.59 mm; ulcer area as compared with the control group (PR-39 administered every day in the healing stage (7th to 14th day)): significantly decreased; thickness of granulation at the ulcer bottom (PR-39 administration): significantly decreased; length of an ulcer (histological observation) (PR-39 administration group): significantly decreased
